The record followed here is US9428500B2, “Alpha-carbolines for the treatment of cancer” (UNIVERSITA' DEGLI STUDI DI MILANO—BICOCCA, priority 2012, dated 2016).

Where two headings read alike, the source gives them in different places.

The subject of assay [1] is parental untransformed BaF3 cells. Put plainly: Tritiated thymidine uptake cell proliferation assay, parental BaF3. The assay is classed as cell-based. Particulars: Mus musculus, BaF3; 3H-thymidine uptake, 72 h, medium with IL-3.
The next assay concerns NPM/ALK+ Karpas299 cells. Kind of assay: NPM/ALK+ Karpas299 tumour growth in SCID mice. It is filed as in vivo. Particulars: oral gavage, 150 mg/kg twice per day, subcutaneous Karpas299 tumors in SCID mice. The method, then: The in vivo studies were approved by the Italian Ministry of Research and by the University internal ethical committee, and were run according to guidelines to reduce animal pain. Ten million NPM/ALK+ Karpas299 cells were injected subcutaneously in the right flank of SCID mice. Ten days later, when the tumors reached the size of 100 mm3 on average, mice were randomized either to control arm, receiving vehicle only (0.5% carboxymethylcellulose and 0.1% Tween80), or to treatment arm, receiving compound R533 by oral gavage, 150 mg/kg twice per day. Tumor size was measured bi-weekly by a caliper. General toxicity was assessed by monitoring weight loss, and by visual inspection for any sign of stress or suffering, including eye closure or bulging, ruffled/dull fur, reduced mobility, drowsiness, diarrhea.

Assay [2] has as its system BaF3 cells transformed with the oncogenic fusion protein NPM/ALK.
For assay [3], the target named is wild-type ALK kinase (rALK) (Homo sapiens (Human), UniProt Q9UM73). Put plainly: ELISA-based in vitro kinase assay, wild-type ALK. The assay is classed as biochemical. Particulars: recombinant ALK, 0.3 mM ATP; read-out: ELISA ALK WT IC50. The method, then:
Recombinant 3C protease was used to remove the GST tag. Purified ALK was used to screen inhibitors in the ELISA-based kinase assay, as follows: Nunc-Immuno 96-well plates were incubated overnight at 30° C. with coating solution containing 2 μg of a specific ALK peptide substrate ([…]) in PBS. Wells were then washed with 200 μL of wash buffer (PBS-Tween 0.05%) and incubated with 4% BSA in PBS for at least 2 h at 30° C. […] For inhibitor testing the reaction mix was preincubated with inhibitor or vehicle for 10 min at room temperature before transferring to the ELISA plate. After the reaction, the wells were washed 5 times with 200 uL of wash buffer. Phosphorylated peptide was detected using 100 μL/well of a mouse monoclonal anti-phosphotyrosine antibody (clone 4G10 UpstateBiotech Ltd) diluted 1:2000 in PBS+4% BSA. After 30 min incubation at room temperature the antibody was removed and wells were washed as described above. 100 μL of a secondary antibody (anti-mouse IgG, Horseradish Peroxidase linked whole antibody, Amersham Pharmacia Biotech) diluted 1:1000 in PBS+4% BSA was added to each well and the plate was incubated again for 30 min at room temperature before washing as above. The plate was developed using 100 μL/well TMB Substrate Solution (Pierce) and the reaction was stopped by adding an equal volume of 1M H2SO4. Finally, the absorbance was read at 450 nm using an ELISA plate reader (Bio-Rad).
(ELISA stands for enzyme-linked immunosorbent assay.)

The subject of assay [4] is BaF3 cells transformed with the oncogenic fusion protein NPM/ALK. Put plainly: cells. Particulars: read-out: BaF3 NPM/ALK WT IC50.

wild-type ALK kinase (rALK), sequence (Q9UM73 19-1620): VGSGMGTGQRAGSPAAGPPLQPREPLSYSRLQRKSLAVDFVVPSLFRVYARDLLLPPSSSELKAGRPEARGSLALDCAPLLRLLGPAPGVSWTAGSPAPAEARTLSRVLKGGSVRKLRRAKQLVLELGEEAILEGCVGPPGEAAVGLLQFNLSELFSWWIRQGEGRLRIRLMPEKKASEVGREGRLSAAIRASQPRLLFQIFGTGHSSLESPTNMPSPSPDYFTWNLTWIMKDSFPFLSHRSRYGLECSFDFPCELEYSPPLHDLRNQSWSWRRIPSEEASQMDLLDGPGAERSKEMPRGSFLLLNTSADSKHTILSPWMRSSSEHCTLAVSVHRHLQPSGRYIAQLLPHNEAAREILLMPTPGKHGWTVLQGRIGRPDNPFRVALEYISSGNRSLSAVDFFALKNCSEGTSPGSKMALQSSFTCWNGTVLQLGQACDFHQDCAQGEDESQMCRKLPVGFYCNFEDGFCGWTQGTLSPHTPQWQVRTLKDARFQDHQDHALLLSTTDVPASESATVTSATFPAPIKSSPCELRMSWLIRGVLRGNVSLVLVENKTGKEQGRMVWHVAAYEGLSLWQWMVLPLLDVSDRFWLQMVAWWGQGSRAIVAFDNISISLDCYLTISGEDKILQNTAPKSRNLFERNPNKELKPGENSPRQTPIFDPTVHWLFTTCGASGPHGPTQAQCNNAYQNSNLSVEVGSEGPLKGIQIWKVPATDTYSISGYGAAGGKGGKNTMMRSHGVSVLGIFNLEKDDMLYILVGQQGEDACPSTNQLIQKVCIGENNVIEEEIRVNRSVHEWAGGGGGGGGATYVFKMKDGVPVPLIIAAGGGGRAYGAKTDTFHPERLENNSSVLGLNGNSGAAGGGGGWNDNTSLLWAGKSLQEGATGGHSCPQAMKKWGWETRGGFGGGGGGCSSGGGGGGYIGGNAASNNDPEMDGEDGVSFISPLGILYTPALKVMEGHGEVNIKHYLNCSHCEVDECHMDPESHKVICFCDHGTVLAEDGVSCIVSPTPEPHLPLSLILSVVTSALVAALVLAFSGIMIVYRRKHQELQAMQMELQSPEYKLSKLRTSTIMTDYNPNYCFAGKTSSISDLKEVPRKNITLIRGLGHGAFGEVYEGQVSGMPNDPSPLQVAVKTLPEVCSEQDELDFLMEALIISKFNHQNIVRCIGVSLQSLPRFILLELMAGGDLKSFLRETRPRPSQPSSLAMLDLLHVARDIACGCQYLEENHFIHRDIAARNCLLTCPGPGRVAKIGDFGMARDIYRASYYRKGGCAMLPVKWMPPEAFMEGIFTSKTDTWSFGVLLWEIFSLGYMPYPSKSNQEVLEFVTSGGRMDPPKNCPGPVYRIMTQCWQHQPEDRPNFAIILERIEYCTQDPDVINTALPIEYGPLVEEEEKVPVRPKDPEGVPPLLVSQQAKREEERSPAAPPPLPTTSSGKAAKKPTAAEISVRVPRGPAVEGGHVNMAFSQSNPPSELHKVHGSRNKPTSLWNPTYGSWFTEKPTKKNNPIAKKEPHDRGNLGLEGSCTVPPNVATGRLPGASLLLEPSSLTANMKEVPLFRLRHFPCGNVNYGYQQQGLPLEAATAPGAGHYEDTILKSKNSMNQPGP

As for `CN1CCN(c2ccc(-c3ccc4[nH]c5nccc(-c6ccc(Cc7ccccc7)cc6)c5c4c3)cc2)CC1` [Example 16, 4-(4-Benzylphenyl)-6-[4-(4-methylpiperazin-1-yl)-phenyl]-9H-pyrido[2,3-b]indole], the IC50 in assay [1] was determined as 8.7 µM. Moreover, in the assay with NPM/ALK+ Karpas299 cells, the “Tumor size (tumour growth curves)” value is “remarkable effect”.
On to `CN1CCN(c2ccc(-c3ccc4[nH]c5nccc(-c6ccc(N7CCN(C)CC7)cc6)c5c4c3)cc2)CC1` [Example 20, 4,6-Bis-[4-(4-methylpiperazin-1-yl)-phenyl]-9H-pyrido[2,3-b]indole], for which the “Selectivity Index (WT)” value in assay [2] is reported as 7. Moreover, the IC50 in assay [3] was found to be 10 µM; in assay [1], 3.6 µM; in assay [4] it was 0.52 µM.
For the compound `C#Cc1ccnc2[nH]c3ccc(-c4ccc(N5CCN(C)CC5)cc4)cc3c12` [Example 44, 4-Ethynyl-6-(4-(4-methylpiperazin-1-yl)phenyl)-9H-pyrido[2,3-b]indole], in assay [2], the “Selectivity Index (WT)” value was determined as 2. Also, the IC50 in assay [3] turned out to be 29 µM; in assay [1], 0.35 µM; in assay [4], 0.17 µM.
Take `COc1ccccc1C#Cc1ccnc2c1c1cc(-c3ccc(N4CCN(C)CC4)cc3)ccc1n2C` [Example 45, 4-(2-Methoxyphenylethynyl)-9-methyl-6-[4-(4-methylpiperazin-1-yl)-phenyl]-9H-pyrido[2,3-b]indole]: in assay [2] (BaF3 parental vs NPM/ALK WT), the “Selectivity Index (WT)” value was found to be 2. In addition, the IC50 in assay [3] worked out at 3.8 µM; in assay [1], 2.1 µM; in assay [4], 1.1 µM.
Regarding `COc1ccc(Sc2ccnc3[nH]c4ccc(-c5ccc(N6CCN(C)CC6)cc5)cc4c23)cc1` [Example 46, 4-(4-Methoxy-phenylsulfanyl)-6-[4-(4-methyl-piperazin-1-yl)-phenyl]-9H-pyrido[2,3-b]indole], the IC50 in assay [3] came to 5.7 µM.
Same read-out and setting: the value for `Cc1ccc(Cn2cc(-c3ccnc4[nH]c5ccc(-c6ccc(N7CCN(C)CC7)cc6)cc5c34)nn2)cc1` [Example 47, 4-(1-(4-methylbenzyl)-1H-1,2,3-triazol-4-yl)-6-(4-(4-methylpiperazin-1-yl)phenyl)-9H-pyrido[2,3-b]indole] was 6.8 µM.
In the case of `CN1CCN(c2ccc(-c3ccc4[nH]c5nccc(-c6ccc(Cc7ccccc7)cc6C(F)(F)F)c5c4c3)cc2)CC1` [Example 55, 4-(4-benzyl-2-(trifluoromethyl)phenyl)-6-(4-(4-methylpiperazin-1-yl)phenyl)-9H-pyrido[2,3-b]indole], the IC50 in assay [1] is 5.1 µM.
Same read-out and setting: the value for `COc1cc(C(O)c2ccccc2)c(OC)cc1-c1ccnc2[nH]c3ccc(-c4ccc(N5CCN(C)CC5)cc4)cc3c12` (centres unmarked) [Example 57, (2,5-dimethoxy-4-(6-(4-(4-methylpiperazin-1-yl)phenyl)-9H-pyrido[2,3-b]indol-4-yl)phenyl)(phenyl)methanol] was 0.79 µM; that for `CN1CCN(c2ccc(-c3ccc4[nH]c5nccc(N6CCC(Cc7ccccc7)CC6)c5c4c3)cc2)CC1` [Example 58, 4-(4-benzylpiperidin-1-yl)-6-(4-(4-methylpiperazin-1-yl)phenyl)-9H-pyrido[2,3-b]indole] was 3.3 µM; that for `CN1CCN(c2ccc(-c3ccc4[nH]c5nccc(N6CCN(Cc7ccccc7)CC6)c5c4c3)cc2)CC1` [Example 59, 4-(4-benzylpiperazin-1-yl)-6-(4-(4-methylpiperazin-1-yl)phenyl)-9H-pyrido[2,3-b]indole] was 0.83 µM.
